From paper PMC4338649 (International Journal of Endocrinology and Metabolism, 2014)

Test system: infants with central diabetes insipidus
Assay: Pharmacodynamics
Assay type: in vivo
Settings: Case 2, IV administration of dDAVP; confirmed diagnosis of CDI

## desmopressin [dDAVP]
  urine output and osmolality after IV administration: Normalization of urine output and osmolality
